Source: patent US6194383A, “Lipopeptides from actinoplanes sp. with pharmacological action, process for their production and the use thereof” (Hoechst Aktiengesellschaft, priority 1993, dated 2001)

What was measured:
Assay type in all cases: cell-based
Streptococcus pyogenes = test: agar dilution test, MIC, vancomycin-resistant strains table; settings: Muller-Hinton agar with 10% horse blood, 37° C., 24 hours
Experimental: (§1) The sensitivity of relevant organisms to the A 1437 lipopeptides is determined by an agar dilution test. The agar used is Muller-Hinton agar to which, in the case of S. pyogenes and the Enterococci, 10% horse blood is added. The antibiotic-containing plates are inoculated using a multichannel inoculator (5×10^4 cfu/inoculation site of a stationary culture of the particular strain). The MIC values (minimum inhibitory concentration) are read off at 37° C. The MIC is defined as the concentration of the antibiotic at which no visible growth of the organisms is detectable after incubation for 24 hours. The amphomycin used as control was obtained from Boehringer Mannheim (Germany). Amphomycin can be obtained as fine chemical therefrom.

relevant organisms = test: agar dilution test, MIC, in vitro activity (AB spectrum); settings: Muller-Hinton agar, 37° C., 24 hours
Experimental: as §1

Enterococcus faecium VR1 = test: agar dilution test, MIC, vancomycin-resistant strains; settings: Muller-Hinton agar with 10% horse blood, 37° C., 24 hours
Experimental: as §1

Enterococcus faecium VR2 = test: as above; settings: Muller-Hinton agar with 10% horse blood, 37° C., 24 hours
Experimental: as §1

[1] = 1st of 6 value columns, strain not given
[2] = 2nd of 6 value columns, strain head not printed
[3] = 3rd of 6 value columns, strain not given
[4] = 4th of 6 value columns, strain not given
[5] = 5th of 6 value columns, strain not given
[6] = 6th of 6 value columns, strain head not printed

Row | Substance | MIC, in vitro activity (vancomycin-resistant strains), concentration (Streptococcus pyogenes) [µg/mL] | MIC, in vitro activity (AB spectrum), concentration (relevant organisms; [1]) [µg/mL] | MIC, in vitro activity (AB spectrum), concentration (relevant organisms; [2]) [µg/mL] | MIC, in vitro activity (AB spectrum), concentration (relevant organisms; [3]) [µg/mL] | MIC, in vitro activity (AB spectrum), concentration (relevant organisms; [4]) [µg/mL] | MIC, in vitro activity (AB spectrum), concentration (relevant organisms; [5]) [µg/mL] | MIC, in vitro activity (AB spectrum), concentration (relevant organisms; [6]) [µg/mL] | MIC, in vitro activity (vancomycin-resistant strains), concentration (Enterococcus faecium VR1) [µg/mL] | MIC, in vitro activity (vancomycin-resistant strains), concentration (Enterococcus faecium VR2) [µg/mL]
1 | Amphomycin [reference compound] | 2 | 0.195 | 0.781 | 0.391 | 1.56 | 0.391 | 1.56 | 4 | 4
2 | aiC13 -fatty acid-Asn-Dab-Pip-MeAsp-Asp-Gly-Asp-Gly-Dab-Val-Pro [A 1437 F] | 1 | 0.098 | 0.391 | 0.195 | 1.56 | 0.781 | 1.56 | 4 | 4
3 | aiC15 -fatty acid-Asn-Dab-Pip-MeAsp-Asp-Gly-Asp-Gly-Dab-Val-Pro [A 1437 H] | 0.5 | 0.049 | 0.098 | 0.049 | 0.195 | 0.049 | 0.195 | 1 | 1
4 | aiC15 -fatty acid-Asp-Dab-Pip-MeAsp-Asp-Gly-Asp-Gly-Dab-Val-Pro [A 1437 G] | 0.125 | 0.098 | 0.195 | 0.049 | 0.088 | 0.025 | 0.195 | 0.25 | 0.25
5 | iC13 -fatty acid-Asp-Dab-Pip-MeAsp-Asp-Gly-Asp-Gly-Dab-Val-Pro [A 1437 A] |  | 0.391 | 0.781 | 0.391 | 1.56 | 0.391 | 3.13 |  | 
6 | iC14 -fatty acid-Asn-Dab-Pip-MeAsp-Asp-Gly-Asp-Gly-Dab-Val-Pro [A 1437 D] | 1 | 0.049 | 0.195 | 0.049 | 0.781 | 0.391 | 0.781 | 2 | 2
7 | iC14 -fatty acid-Asp-Dab-Pip-MeAsp-Asp-Gly-Asp-Gly-Dab-Val-Pro [A 1437 B] | 0.5 | 0.098 | 0.195 | 0.098 | 0.195 | 0.049 | 0.391 | 1 | 1
8 | ic13 -fatty acid-Asn-Dab-Pip-MeAsp-Asp-Gly-Asp-Gly-Dab-Val-Pro [A 1437 C] | 4 | 0.195 | 0.781 | 0.391 | 3.13 | 0.781 | 3.13 | 4 | 4
